The text below walks through data of patent US20260200926A1, “TREM2 MODULATORS” (Muna Therapeutics ApS, priority 2022, published 2026).

A value given as a limit tells only on which side of the number the result lay.

The subject of assay [1] is TREM2 regulated genes CXCL10, CCL2, CST7, and TMEM119. The assay is described as follows: Pharmacodynamics in hTREM2 knock-in mice: brain mRNA expression of TREM2 regulated genes by RT-qPCR. It is filed as in vivo, humanized TREM2 knockin (hTREM2 KI) mice, C57BL/6 background. Particulars: hTREM2 KI mice, oral gavage 50 mg/kg twice a day with a 10-hour interval, brains after 24 hours, RT-qPCR relative to GAPDH, normalized to vehicle. How it is done: Humanized TREM2 knockin (hTREM2 KI) mice were used for pharmacodynamics and pharmacokinetics studies. hTREM2 mice were generated by replacement of the mouse TREM2 gene that encodes the full-length protein by the human TREM2 gene in a C57BL/6 mouse strain background. Groups of 10 animals 8-10-week-old hTREM2 mice were treated via oral gavage administration with a TREM2 agonist compound at 50 mg/kg twice a day with a 10-hour interval. After 24 hours, mice were sacrificed and brains were isolated for RNA extraction used for reverse transcription to create complementary DNAs (cDNAs). The relative mRNA expression level of known TREM2 regulated genes were measured by quantitative reverse transcription polymerase chain reaction (RT-qPCR) relative to Glyceraldehyde-3-phosphate dehydrogenase (GAPDH) reference housekeeping gene. Expression of TREM2 regulated genes CXCL10, CCL2, CST7, and TMEM119 were measured as pharmacodynamic biomarkers after TREM2 agonist treatment normalized to vehicle control. These genes are known as microglial activation biomarkers and have previously been reported to respond to TREM2 antibody and small molecule agonist treatment in vivo.
Statistical Analyses. All graphs represent the mean of all samples in each group±SEM.
GraphPad Prism software was used to perform statistical analyses. P<0.05 was considered significant difference between vehicle and TREM2 small molecule treatment determined by T-test.
The relative expression levels for Compound 89A and vehicle were measured.
A general note: Quantitative PCR measures a nucleic acid by following its amplification.

Assay [2] deals with T1, Human TREM2 (Homo sapiens, UniProt Q9NZC2).
T1 construct: expressed in transfected cells
T1 sequence (Q9NZC2 19-230): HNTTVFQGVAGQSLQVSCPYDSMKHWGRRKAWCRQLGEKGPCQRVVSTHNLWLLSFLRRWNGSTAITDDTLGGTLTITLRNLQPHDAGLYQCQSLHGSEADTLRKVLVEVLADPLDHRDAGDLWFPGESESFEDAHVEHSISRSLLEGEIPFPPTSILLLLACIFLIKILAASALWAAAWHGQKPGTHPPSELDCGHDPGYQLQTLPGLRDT
T1 sequence (O43914 22-113 partner): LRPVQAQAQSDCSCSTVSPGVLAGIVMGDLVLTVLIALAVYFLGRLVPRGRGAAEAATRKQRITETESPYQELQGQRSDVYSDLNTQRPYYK
The assay can be described thus: Human TREM2 activity: cellular phosphorylation of Syk (AlphaLISA SureFire Ultra p-SYK) in HEK293/DAP12+TREM2 stable cell line. The assay is classed as cell-based. As to conditions: for Emax: HEK293, maximal response relative to reference agonist example 1B (remaining examples), read-out: Emax; for EC50: phospho-Syk AlphaLISA signal, HEK293/DAP12+TREM2 cells, concentration giving 50% of maximal response, read-out: EC50. The gist of the method:
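HEK293 cells stably co-expressing human TREM2 and DAP12 were seeded at 10,000 cells/well and used 20–24 h later. Compounds were tested at 8 concentrations (top 100 μM, 1:6 steps, 0.5% DMSO) for 30 min at 37 °C. Syk phosphorylation at Tyr525/526 was read in lysates by AlphaLISA SureFire Ultra.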
In general terms: Alpha assays give light when donor and acceptor beads are brought close together.

For `Cc1nc2c(-c3ccc(Cl)cc3F)nc(N3C[C@@H](c4cnn(C)c4)OC(C)(C)C3)nc2c(=O)n1C` (single isomer, unassigned) [Example 89A], in assay [1], the “brain expression level of CCL2 as compared to vehicle control” value is 1.7 fold, the “brain expression level of CST7 as compared to vehicle control” value was 3.25 fold, the “brain expression level of CXCL10 as compared to vehicle control” value was “about 2.5 fold” and the “brain expression level of TMEM119 as compared to vehicle control” value was found to be 1.8 fold. Also, in assay [2], the Emax fell in the range of 75 to 110% and the EC50 fell in the range of 10 to 100 nM.

Regarding `Cc1nc2c(nc(N3CCOC(c4cnn(C)c4)C3)nc2[C@H]2CC[C@@H](C)CC2)c(=O)n1C` (some centres unmarked) [Example 12a, 2,3-dimethyl-6-(2-(1-methyl-1H-pyrazol-4-yl)morpholino)-8-((1s,4s)-4-methylcyclohexyl)pyrimido[5,4-d]pyrimidin-4 (3H)-one], in assay [2], the Emax was in the range of 75 to 110% and the EC50 is above 1000 nM.

A word on the Emax: it is the size of the effect at its maximum, as opposed to the concentration needed. What is called EC50 is the concentration at which the effect is half-maximal.
